Test results published in PubChem BioAssay (NCI).
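These data come from cells grown in 96-well plates and exposed to compound for 48 hours at five concentrations. GI50 marks 50% less growth. TGI denotes the concentration required for complete inhibition of growth.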

How the values were obtained:
Assay in all cases: DTP human tumour cell line panel, 48 h
A549 NSCLC = tested on: A549 NSCLC
PC-3 prostate = tested on: PC-3 prostate
SK-MEL-28 melanoma = tested on: SK-MEL-28 melanoma
HL-60(TB) leukemia = tested on: HL-60(TB) leukemia
M14 melanoma = tested on: M14 melanoma
CCRF-CEM leukemia = tested on: CCRF-CEM leukemia
A498 renal = tested on: A498 renal
T-47D breast = tested on: T-47D breast
ACHN renal = tested on: ACHN renal
HCC-2998 colon = tested on: HCC-2998 colon

SMILES | GI50 (A549 NSCLC) | TGI (A549 NSCLC) | GI50 (PC-3 prostate) | TGI (PC-3 prostate) | GI50 (SK-MEL-28 melanoma) | TGI (SK-MEL-28 melanoma) | GI50 (HL-60(TB) leukemia) | TGI (HL-60(TB) leukemia) | GI50 (M14 melanoma) | TGI (M14 melanoma) | GI50 (CCRF-CEM leukemia) | TGI (CCRF-CEM leukemia) | TGI (A498 renal) | GI50 (T-47D breast) | TGI (T-47D breast) | GI50 (ACHN renal) | TGI (ACHN renal) | GI50 (HCC-2998 colon) | TGI (HCC-2998 colon) | GI50 (A498 renal)
Cc1cc(S(=O)(=O)NC#N)c(S/C(=N\Nc2ccc([N+](=O)[O-])cc2)c2ccc(Cl)cc2)cc1Cl | 52.6 µM | > 100 µM | 33.6 µM | > 100 µM | 31.2 µM | > 100 µM | 36.2 µM | > 100 µM | 54.5 µM | > 100 µM | 32.1 µM | > 100 µM | 2.3 µM | 3.89 µM | 42.6 µM | 34.1 µM | > 100 µM | – | – | –
Fc1cc2[nH]ncc2c2c3c(c(-c4cn[nH]c4C(F)(F)F)nc12)C1CCC3C1 (stereo unspecified) | 1.07 µM | 4.41 µM | – | – | 0.889 µM | 2.84 µM | 1.1 µM | 2.6 µM | 0.791 µM | 3.53 µM | 1.23 µM | > 50 µM | 1.25 µM | 0.85 µM | 3.79 µM | 0.532 µM | 3.2 µM | 1.38 µM | 5.57 µM | 0.591 µM
Cc1nc2sccn2c1-c1csc(Nc2cccc(Cl)c2C)n1 | 3.23 µM | 49.2 µM | 3.72 µM | 87.3 µM | 5.67 µM | 44.1 µM | 3.43 µM | 19.3 µM | 5.04 µM | 28.5 µM | 4.01 µM | 82.1 µM | 17.5 µM | – | – | 6.84 µM | > 100 µM | 10.4 µM | 40.7 µM | 1.45 µM
COC(=O)C(=O)C(C(=O)C(=O)Nc1cccc(C(C)=O)c1)c1nc2ccccc2[nH]c1=O (stereo unspecified) | – | > 100 µM | – | – | – | > 100 µM | – | > 100 µM | – | > 100 µM | – | > 100 µM | > 100 µM | – | – | – | > 100 µM | – | > 100 µM | –
COc1cc(C(=O)Nc2cc3c(cc2Oc2cc(C)cc(C)c2)C(=O)N(C)[C@@H](CC(=O)N(C)O)C(=O)N3)c(Br)c(OC)c1OC | < 0.00333 µM | 0.00742 µM | < 0.00333 µM | 0.00358 µM | < 0.00333 µM | < 0.00333 µM | < 0.00333 µM | < 0.00333 µM | < 0.00333 µM | 0.0101 µM | – | – | 0.00573 µM | < 0.00333 µM | < 0.00333 µM | 0.0111 µM | 0.374 µM | < 0.00333 µM | < 0.00333 µM | < 0.00333 µM
CCOC(=O)/C=C1\CCCC12OCCO2 | – | > 100 µM | – | – | – | > 100 µM | – | > 100 µM | – | > 100 µM | – | > 100 µM | > 100 µM | – | – | – | > 100 µM | – | > 100 µM | –
COC(=O)c1nc(Cl)nc(Cl)c1Cl | – | > 100 µM | – | 34.9 µM | – | 56.9 µM | – | – | – | 38.3 µM | – | 27.7 µM | – | – | 54.2 µM | – | 27.7 µM | – | 68.3 µM | –
CC[O-].CC[O-].O=S(=O)([O-])c1ccc([O-])c2ncccc12.O=S(=O)([O-])c1ccc([O-])c2ncccc12.[Ti+4] | 39.1 µM | > 100 µM | – | – | > 100 µM | > 100 µM | 40.9 µM | > 100 µM | 63.8 µM | > 100 µM | 53.3 µM | > 100 µM | > 100 µM | – | – | 59.1 µM | > 100 µM | 68.2 µM | > 100 µM | > 100 µM
Nc1ccccc1C#C/C=C\C#Cc1ccccc1 | 17.8 µM | 77.7 µM | 12.3 µM | 54.1 µM | 11.7 µM | 27.1 µM | 13.7 µM | > 100 µM | 15.8 µM | 32.4 µM | 0.804 µM | 29.9 µM | 31.1 µM | 17.7 µM | 38.3 µM | 23.9 µM | 75 µM | – | – | 15.3 µM
CCOP(=O)(OCC)OC(C#N)c1ccc(-c2ccccc2)cc1 (stereo unspecified) | – | 34.9 µM | – | – | – | > 100 µM | – | 36.9 µM | – | 33.3 µM | – | 49.7 µM | 62.7 µM | – | – | – | > 100 µM | – | 81.7 µM | –
NC(=O)c1cc2c3ccccc3ccn2c1-c1ccccc1 | 0.0969 µM | 9.82 µM | 0.0371 µM | 12.6 µM | 14.7 µM | 34.5 µM | 0.242 µM | 2.96 µM | 0.0706 µM | 17.7 µM | 0.0425 µM | 13.8 µM | 7.42 µM | – | – | 3.17 µM | 30.5 µM | 0.542 µM | 9.55 µM | 0.0468 µM
CC[PH+](CC)CC.O=COC1OC([S-])C(OC=O)C(OC=O)C1OC=O.[Au+] (stereo unspecified) | – | – | 1.66 µM | 3.54 µM | 0.907 µM | 2.15 µM | 2.6 µM | 6.6 µM | 1.15 µM | 2.81 µM | 0.64 µM | 4.1 µM | 3.29 µM | 1.96 µM | 6.47 µM | 1.78 µM | 3.16 µM | 1.6 µM | 3.03 µM | 1.86 µM
Cc1cc2c(cc1C)N(C(=O)CCl)CCN2C(=O)CCl | 2.09 µM | 4.29 µM | 1.43 µM | 2.89 µM | 1.56 µM | 2.96 µM | – | – | 1.08 µM | 2.52 µM | 0.282 µM | 0.856 µM | 3.29 µM | 1.4 µM | 3.94 µM | 0.638 µM | 2.08 µM | 1.78 µM | 3.3 µM | 1.79 µM
COc1ccc2c(c1)/C(=C\c1c(Cl)[nH]c3ccc(OC)cc13)C(=O)N2 | 65.1 µM | > 100 µM | 48.9 µM | > 100 µM | 15.9 µM | 40.4 µM | 26.9 µM | 67.3 µM | 21.9 µM | 39.8 µM | 32.5 µM | > 100 µM | – | 13 µM | 32 µM | 43.3 µM | > 100 µM | – | – | –
Cc1c(C(=O)NCCN2CCOCC2)cn2ncnc(Oc3ccc(NC(=O)Nc4ccc(Cl)c(C(F)(F)F)c4)cc3)c12 | – | – | 0.842 µM | 2.33 µM | 1.06 µM | 2.39 µM | 0.417 µM | 1.7 µM | 1.08 µM | 2.55 µM | – | – | 3.08 µM | 2.02 µM | 6.38 µM | – | – | 2.04 µM | 3.71 µM | 1.6 µM
